Tests used:
[1] = tested on: SMMC-7721; experiment: MTT growth inhibition, SMMC-7721; format: cell-based; conditions: Homo sapiens, Hepatoma, MTT assay
Experimental: (§1) For cell viability assay, cells were seeded in wells of 96-well plates for 2 days and then treated with different concentrations of mushroom extract fractions or purified verticillin A for 2 days. The cells were then incubated with MTT (3-(4,5-dimethylthiazol-2-yl)-2,5-diphenyltetrazolium bromide) using the MTT assay kit (ATCC, Manassas, Va.) according to the manufacturer's instructions.
(§2) To determine whether verticillin A inhibits other types of tumor cell growth, Mammary carcinoma (Bcap-37 and MCF-7), heptocarcinoma (HepG2), cervical (HeLa), liver (SMMC-7721), lung (SPC-A1) cancer cells and T cell leukemia (Jurkat) were cultured in the presence of different concentrations of verticillin A and examined for the efforts of verticillin A on the growth rate of these tumor cells in vitro.

[2] = tested on: SPC-A1; experiment: MTT growth inhibition, SPC-A1; format: cell-based; conditions: SPCA1, Lung Carcinoma, MTT assay
Experimental: as §1, §2

[3] = tested on: 6 other human colon carcinoma cells; experiment: TRAIL sensitization in other colon carcinoma cells; format: cell-based; conditions: verticillin A and TRAIL
Experimental: (§3) Cells were seeded in wells of 96-well plates for 2 days and then treated with different concentrations of mushroom extract fractions or purified verticillin A for 2 days. The cells were stained with propidium iodide (PI) (Trevigen, Gaithersburg, Md.) or PI plus annexin V-Alex Fluor 647 (Biolegend, San Diego, Calif.) and analyzed by flow cytometry.
(§4) The sensitization effects of verticillin A was examined in other types of tumor cells.

[4] = tested on: sarcoma (MC-WST-724), and mammary carcinoma (MCF-7); experiment: TRAIL co-treatment apoptosis in other tumor cell types; format: cell-based; conditions: co-treatment with verticillin A and TRAIL
Experimental: as §3, §4

[5] = tested on: SW620 cells; experiment: Cytochrome C release; format: cell-based, human; conditions: SW620, combinational treatment of verticillin A and TRAIL
Experimental: (§5) Tumor cells were lysed in lysis buffer containing 20 mM HEPES, pH 7.4, 20 mM NaCl, 10% glycerol, 1% Triton X-100, and a protease inhibitor cocktail (Calbiochem, La Jolla, Calif.). Cellular proteins were separated by 12% or 4-20% SDS-PAGE gradient gels, transferred to Immobilon-P membranes (Millipore, Bedford, Mass.) or nitrocellulose (Bio-Rad, Hercules, Calif.), and probed with the following primary antibodies: anti-FLIP (Cell Sinnaling, Danvers, Mass.) at 1:250; anti-survivin (Santa Cruz Biotech) at 1:100; anti-cIAP1 (cell signaling) at 1:250; anti-xIAP (cell Signaling) at 1:500; anti-Bad (Cell Signaling) at 1:1000; anti-Bax (Cell Signaling) at 1:2000; anti-Mcl-1 (Santa Cruz) at 1:100); anti-A-CDase (BD Biosciences) at 1:1000; anti-CytC (BD Biosciences) at 1:1000; and β-actin (Sigma, St Louis, Mo.) at 1:8000. The blots were then washed and incubated with horseradish peroxidase-conjugated anti-goat (Santa Cruz Biotech), anti-mouse or rabbit (Amersham-Pharmacia, Piscataway, N.J.) IgGs. Blots were detected using the ECL Plus Western detection kit (Amersham Pharmacia Biotech).

[6] = tested on: SW620 tumor xenograft; experiment: SW620 tumor xenograft growth in athymic mice; format: in vivo
Experimental: Athymic mice were subcutaneously inoculated with human hepatoma HepG2 and colon carcinoma SW620 cells, respectively. The tumor-bearing mice were randomized into experimental groups. The control mice were given saline. The treatment group was intravenously injected with verticillin A at the doses of 1 and 2 mg/kg body weight. Tumor size was measured in 2 diameter with micrometer caliper at the indicate times to permit calculation of tumor volume, V=(a×b^2)/2, where “a” is the length and “b” is the width in millimeters. At the end of the experiment, all the animals were sacrificed, The tumor inhibitory rates were calculated using the following formula: [(mean tumor volume of control nude mice−mean tumor volume of treated nude mice)/mean tumor volume of control nude mice]×100%.
The disclosed observations indicate that verticillin A can dramatically increase TRAIL-induced tumor cell apoptosis. To determine whether these in vitro observations can be extended to enhance TRAIL-mediated tumor suppression in vivo, SW620 cells were injected subcutaneously to athymic mice, verticillin A and TRAIL, either used as single agent or in combination, were then injected to the tumor-bearing mice. Tumor growth rate were measured in different time points. Verticillin A can inhibit tumor cell growth in vitro at high dose and sensitize tumor cells to TRAIL-induced apoptosis at a low dose. […] As expected, SW620 tumors are resistant to TRAIL (Voelkel-Johnson C, et al. Mol Cancer Ther 2005 4(9):1320-7).

[7] = tested on: A-CDase; experiment: A-CDase protein level, Western blot; format: cell-based, human; conditions: after verticillin A treatment
Experimental: as §5
To elucidate the molecular mechanisms underlying verticillin A sensitization of tumor cells to TRAIL-mediated apoptosis, the protein levels of genes known to function in the mitochondrion-mediated apoptosis pathway were analyzed. […]

[8] = tested on: BNIP3; experiment: BNIP3 expression level; format: cell-based, human; conditions: SW620 and HepG2 cells
Experimental: Because verticillin A enhances tumor cell apoptosis through the mitochondrion-dependent pathway, the expression levels of apoptosis-related genes of the mitochondrion-mediated apoptosis pathway was analyzed.

[9] = tested on: TET1; experiment: TET1 expression, RT-PCR; format: cell-based, human; conditions: colon carcinoma cells, dose-dependent
Experimental: FIG. 11A is an acrylamide gel showing that LS411N cells were treated with Verticillin A at the indicated concentrations for 24 h and analyzed for TET1, TET2 and TET3 level by RT-PCR.
TET1 is an enzyme with very recently identified function in converting 5-methylcytosine (5mC) to 5-hydroxylmethylcytosine (5hmC), and eventually to unmodified Cytosine to reverse DNA methylation (Veron N, Peters A H. Epigenetics: Tet proteins in the limelight. Nature 2011; 473:293-4; Ito et al. Tet proteins can convert 5-methylcytosine to 5-formylcytosine and 5-carboxylcytosine. Science 2011; 333:1300-3; Guo et al. Hydroxylation of 5-methylcytosine by TET1 promotes active DNA demethylation in the adult brain. Cell 2011; 145:423-34). […] Thus, Verticillin A is a small molecule TET1 activator. Verticillin A appears to be the first reported small molecule TET1 activator.

CN1C(=O)[C@]23SS[C@]1(C)C(=O)N2C1Nc2ccccc2[C@@]1(C12c4ccccc4NC1N1C(=O)[C@@]4(C)SS[C@]1(C(=O)N4C)[C@H]2O)[C@@H]3O (some centres unmarked) [Verticillin A]
IC50 [1]: 0.08 µM | IC50 [2]: 0.03 µM | sensitization to TRAIL-induced apoptosis [3]: sensitization effect of verticillin A was also observed | apoptosis rate versus single agent alone [4]: significantly increased the apoptosis rate | cytochrome C release [5]: dramatically increased cytochrome C release | tumor suppression activity, verticillin A alone ([6]; 0.125 mg/kg body weight): did not exhibit significant tumor suppression activity | tumor xenograft growth, combination treatment ([6]; low dose verticillin A (0.125 mg/kg) and TRAIL): significantly inhibited the tumor xenograft growth | lowest dose enhancing the efficacy of TRAIL in suppressing human cancer growth ([6]; nude mice): 0.125 mg/kg | A-CDase expression level [7]: decreased after verticillin A treatment at a dose-dependent manner | BNIP3 expression level [8]: increased BNIP3 expression level in a dose-dependent manner | TET1 expression [9]: up-regulates TET1 expression

Reference: patent US20120219568A1, “EPIDITHIODIOXO[…] USES THEREOF IN TREATING CANCER” (priority 2011, published 2012)
